From patent publication US20100292316A1, “IMPROVED THERAPEUTIC METHODS AND COMPOSITIONS COMPRISING CHROMAN RING COMPOUNDS” (Research Development Foundation, priority 2007, published 2010) come the findings set out here.

Holding throughout (type): cell-based, human
One assay concerns Akt. Kind of assay: Western blot of phosphorylated Akt (Ser 473) and total Akt in prostate cancer cells. The text has this: Previous studies have shown that α-TEA is an effective inducer of apoptosis in human prostate cancer cells (Anderson et al., 2004). Dose- and time-dependent pro-apoptotic effects of α-TEA in prostate cancer cells are mediated by Fas/FADD/caspase-8/tBid and Fas/Daxx/Ask1/JNK1/2/Bax, leading to activation of caspases-9 and -3. Thus, the Akt inhibiting activity of α-TEA was investigated in prostate cancer cells. Since phosphorylation of Akt at Ser 473 is required for its full activation (Cheng et al., 2005), we examined the phosphorylation status of Akt using an antibody that specifically recognizes Akt phosphorylated at Ser 473 in all three Akt isoforms (Upstate Cell Signaling Solutions (Charlottesville, Va.)). α-TEA decreased the levels of the phosphorylated forms of Akt. […] As verification that the decreases in phosphorylation status of Akt correlated with decreased kinase activity, the phosphorylation status of GSK3β, a downstream Akt target, was evaluated following α-TEA treatments. […] GAPDH levels were assayed with each immunoblot assay as a protein loading control.
Since Akt has three isoforms; namely, Akt1, Akt2, and Akt3, it was of interest to determine if α-TEA treatment was reducing the phosphorylated status of all three isoforms. Following α-TEA treatment the three Akt isoforms were immunoprecipitated with isoform specific antibodies, followed by western immunoblotting analyses using antibody specific for phospho-Akt. The protein levels of the isoforms were also determined. […] Treatment diminished the phosphorylation levels in all three Akt isoforms in both LNCaP and PC-3-GFP cells.
1×10^7 LNCaP or PC-3 3-GFP cells were treated with α-TEA and lysed in RIPA lysis buffer in the presence of protease inhibitors. […] Beads were washed 4 times with PBS and the proteins were released from the beads by boiling in Laemmli buffer for 5 min. Immunoprecipitated proteins were identified by SDS-PAGE followed by western immunoblot analyses.
Since Akt is activated, at least in part, by PI3K, we were interested to see if blockage of PI3K activity using the PI3K inhibitor LY294002 (Calbiochem-Novabiochem Corp. (San Diego, Calif.)) (Vlahos et al., 1994) would augment the apoptotic response induced by α-TEA.
For orientation: A western blot detects proteins with antibodies after separation by electrophoresis.

In a further assay the test system is LNCaP cells. The assay can be described thus: Apoptosis by DAPI staining, LNCaP. On the procedure: Cells were plated at 2×10^6 in 100 mm cell culture plates, cultured overnight and washed with serum free media before transfection. Plasmids (0.7 μg or 4.2 of μg) or empty vector (pcDNA3) were mixed with 50 μl or 300 μl serum free media and 4 μl or 24 μl PLUS reagent (Invitrogen, CA) and incubated for 15 min at room temperature. Next 2 μl or 12 μl of Lipofectamine reagent (Invitrogen, CA) in 50 μl or 300 μl serum free media were added and the mixture incubated for another 15 min before adding to the cells in 0.5 ml or 5 ml serum free media. Cells were incubated with transfection reagents for 3 h and the growth media containing 2×FBS was added to the cells. Transfected cells were cultured overnight before α-TEA treatment. Transfection efficiency was determined to be 70% using GFP expressing plasmid.
(§1) Assessment of apoptosis based on nuclear morphology using 4′, 6-diamidino-2-phenylindole dihydrochloride (DAPI; Boehringer Mannheim Corp. Indianapolis, Ind.) has been described previously (Yu et al., 2003; Israel et al., 2000). Briefly, 1.5×10^5/well LNCaP or PC-3-GFP cells were plated in 12-well tissue culture plates and cultured overnight to allow cells to attach. On the next day, cells were treated with various concentrations of α-TEA and incubated for various time periods. At the end of treatments, cells were collected, washed with PBS, stained with 25 μl of 2 μg/ml DAPI, and viewed under a fluorescent microscope (model ICM 405 with a model 487701 filter, Zeiss). Cells which contained clearly condensed chromatin or fragmented nuclei were scored as apoptotic cells. ≧500 cells were counted in each sample. Apoptotic data are presented as percentage of apoptotic cells±S.D. for three independent experiments.
FOXO1 siRNA used in the study was purchased from Santa Cruz (Santa Cruz, Calif.). […] Transfection of human prostate cancer cells with FOXO1 siRNA or negative control siRNA was performed in 100 mm cell culture dishes at a density of 2×10^6 cells/dish using Lipofectamine 2000 (Invitrogen, Carlsbad, Calif.) and 300 pmol of siRNA duplex, resulting in a final siRNA concentration of 30 nM. siRNA transfected cells were incubated for 48-72 h prior to α-TEA treatment.

A further assay relates to PC-3-GFP cells. Kind of assay: Apoptosis by DAPI staining, PC-3-GFP. On the procedure:
as §1

For a further assay, the system named is PARP. Kind of assay: PARP cleavage (p84) by Western blot, densitometry. On the procedure: Whole-cell protein extracts were prepared as described previously (Yu et al., 1999), and 50 μg of protein was loaded per lane, separated using SDS-PAGE on a 10-15% gel under reducing conditions, and electroblotted onto a nitrocellulose membrane ([…] Optitran BA-S-supported nitrocellulose; Schleicher and Schuell, Keene, N.H.). Equal loading was verified using GAPDH antibody. Primary rabbit antibodies with specificity for PARP and primary goat antibody with specificity for Arg were purchased from Santa Cruz Biotechnology (Santa Cruz, Calif.). Horseradish peroxidase conjugated goat anti-rabbit or horseradish goat anti-mouse secondary antibody was purchased from Jackson Immunoresearch Laboratory (West Grove, Pa.). Horseradish peroxidase-conjugated donkey anti-goat serum was purchased from Santa Cruz Biotechnology. Immune complexes were visualized using enhanced chemiluminescence detection (Pierce Chemical Co., Rockford, Ill.). Fold differences in level of chemiluminescence were determined by densitometric analyses.
Primary mouse antibody specific for p73 was purchased from IMGENEX (San Diego, Calif.). Primary mouse antibody specific for caspase 8 was purchased from Cell Signaling Technology (Beverly, Mass.). Horseradish peroxidase conjugated goat anti-rabbit or goat anti-mouse secondary antibodies were purchased from Jackson Immunoresearch Laboratory (West Grove, Pa.). Horseradish peroxidase-conjugated donkey […] serum was purchased from Santa Cruz Biotechnology. Immune complexes were visualized using enhanced chemiluminescence detection (Pierce Chemical Co., Rockford, Ill.). Fold differences in level of chemiluminescence were determined by densitometric analyses.

A further assay concerns c-Jun. The assay can be described thus: c-Jun phosphorylation (JNK substrate) by Western blot. On the procedure:
Similar results were also observed in α-TEA treated MCF-7 cells in the presence of JNK inhibitor II (7.5 μM of JNK inhibitor II (Calbiochem-Novabiochem Corp. San Diego, Calif.) vs. DMSO control). Specifically, 68% reduction in the level of phosphorylated c-Jun (FIG. 11B, top panel), almost 100% reduction in NOXA expression (FIG. 11B, second panel), and 29% reduction in the level of PARP cleavage (FIG. 11B, third panel).
JNK siRNA was used to determine if JNK was involved in α-TEA regulation of NOXA expression. MDA-MB-435 and MCF-7 cells were transiently transfected with siRNA specific for JNK1/2 (JNK1/2 sense (5′-AAA GAA UGU CCU ACC UUC Utt-3′), JNK1/2 antisense (5′AGA AGG UAG GAC AUU CUU Utt-3′)). The cells were then treated with α-TEA for 15 h, or 20 h, respectively. […] Likewise in MCF-7 cells JNK siRNA blocked JNK1 phosphorylation by 26% (FIG. 11D, first panel), blocked c-Jun phosphorylation by 36% (FIG. 1D, second panel), reduced protein levels of full length p73 by 66% (FIG. 1D, third panel), reduced protein levels of NOXA by 14% (FIG. 1D, fourth panel), and reduced level of PARP cleavage by 44% (FIG. 11D, fifth panel). Anti-p73 antibodies used in the foregoing experiment were purchases from IMGENEX (San Diego, Calif.).

Another assay concerns NOXA. The assay can be described thus: NOXA mRNA (RT-PCR) and protein (Western blot) levels.
[1] abbreviates: MCF-7 cells, 40 μM α-TEA 20 h, vs DMSO or control siRNA.
Setting [2] is: MDA-MB-435 cells, 40 μM α-TEA 15 h, vs vehicle or control siRNA.

With `O=c1cc(N2CCOCC2)oc2c(-c3ccccc3)cccc12` [LY294002, 2-(4-morpholinyl)-8-phenyl-4H-1-benzopyran-4-one, reference compound], the “inhibition of levels of endogenously phosphorylated Akt” value with Akt (LNCaP cells, 10 μM α-TEA and/or 10 μM LY294002) is listed as 20%; in the assay with Akt (PC-3-GFP cells, 20 μM α-TEA and/or 10 μM LY294002), 60%. For the same compound, the “induction of apoptosis (apoptotic cells)” value in the assay with LNCaP cells (6 μM LY294002, 24 h) turned out to be 4.9%; in the assay on LNCaP cells (12 μM LY294002, 24 h), 13%; in the assay with LNCaP cells (25 μM LY294002, 24 h), 41%. In addition, the apoptotic cells is listed as 6.2% in the assay with PC-3-GFP cells (25 μM LY294002, 24 h) and “approximately 15%” with PC-3-GFP cells (50 μM LY294002, 24 h).
`O=C1c2ccccc2-c2n[nH]c3cccc1c23` [JNK inhibitor II]: in the assay with PARP (setting [1]), the “reduction of level of PARP cleavage in α-TEA treated cells” value is on record as 29%. The “reduction of PARP cleavage (p84 fragment) in α-TEA treated cells” value in the assay with PARP (MDA-MB-435 cells, 40 μM α-TEA 15 h, vs control siRNA or vehicle) was 34%. Besides, the “reduction of α-TEA-induced c-Jun phosphorylation” value with c-Jun (setting [1]) is 68%; in the assay on c-Jun (setting [2]), 38%. The entries for the “reduction of α-TEA-induced NOXA expression” value in the assay with NOXA (setting [1]) and in the assay on NOXA (setting [2]) were around 100% and 41%, respectively.
